Read-outs that look alike come from different tables or passages of the source.
Tests used:
[1] = test system: C. albicans 516; assay: Antifungal susceptibility testing, pH 7.0/35° C., 1x10^3 cells/mL; type: cell-based, Candida albicans
Protocol: (§1) 2) Assay at pH 7.0/35° C. Incubation/(Candida Strains Only).
(§2) Based on several papers published during 1990-1993 regarding the standardization of testing procedures at multiple research centers, and the finding that, inoculum size, pH of media, and the temperature of incubation drastically affect the antifungal activity of several compounds, particularly in the Azole class of antifungals, an additional assay was configured at pH 7.0 for Candida albicans. [M. A. Pfaller et al, Antimicrobial Agents and Chemotherapy, 34, 1648-1654 (1990); F. C. Odds et al, Antimicrobial Agents and Chemotherapy, 36, 1727-1737 (1992); R. A. Cook et al, Antimicrobial Agents and Chemotherapy, 34, 1542-1545 (1990)]
(§3) The assay format is identical to the first one with the following modifications: C.albicans cells are diluted to 1×10^3 cells/ml into 2× buffered YNB (YNB buffered with 1.65 mM MOPS, pH 7.0, with the addition of 2% Dextrose and 0.08% casamino acids mixture, bio 101. inc,cat #10420-100). Incubation is carried out at 35° C. instead of 30° C., and cell growth is monitored at 590 nm at 24 and 48 hrs as described. All other aspects of the assay are identical. This assay was validated with amphotericin B, fluconazole, cilofungin (Ly-121019), Nikkomycin and terbinafine using the following Candida strains- (C.albicans, B311, C.parasilosis, C.tropicalis, C.lusitaniae, C.glabrata, and C. albicans 516)-Table II. All strains were from Dr. Kobayashi, Washington university.

[2] = test system: C.glabrata; assay: as above; type: cell-based; conditions: Nakaseomyces glabratus
Protocol: as §1, §2, §3

[3] = test system: C.parasilosis; assay: as above; type: cell-based
Protocol: as §1, §2, §3

[4] = test system: C.tropicalis; assay: as above; type: cell-based; conditions: Candida tropicalis
Protocol: as §1, §2, §3

[5] = test system: C.albicans, B311; assay: as above; type: cell-based; conditions: Candida albicans
Protocol: as §1, §2, §3

[6] = test system: C.lusitaniae; assay: as above; type: cell-based; conditions: Clavispora lusitaniae
Protocol: as §1, §2, §3

[7] = molecular target: T1, human NMT (Homo sapiens, UniProt P30419); assay: NMT enzyme inhibition assay (radiochemical HPLC end-point), human NMT; type: biochemical; conditions: Table V
T1 construct: made in house; host or cells: E. coli
T1 sequence (P30419 1-416 isoform P30419-2): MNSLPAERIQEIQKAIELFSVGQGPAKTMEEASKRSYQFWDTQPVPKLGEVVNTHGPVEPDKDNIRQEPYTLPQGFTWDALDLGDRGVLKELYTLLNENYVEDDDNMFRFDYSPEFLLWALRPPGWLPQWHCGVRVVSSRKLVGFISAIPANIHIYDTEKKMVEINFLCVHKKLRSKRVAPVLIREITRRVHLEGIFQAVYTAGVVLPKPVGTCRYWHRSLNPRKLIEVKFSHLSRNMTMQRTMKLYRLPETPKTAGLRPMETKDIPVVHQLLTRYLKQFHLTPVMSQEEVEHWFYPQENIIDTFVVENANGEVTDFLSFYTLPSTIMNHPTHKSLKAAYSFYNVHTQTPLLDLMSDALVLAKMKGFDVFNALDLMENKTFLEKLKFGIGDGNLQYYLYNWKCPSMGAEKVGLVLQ
Protocol: Recombinant Candida albicans and human NMTs were expressed and purified from E. coli using previously described protocols. [D. A. Towler et al, Proc. Natl. Acad. Sci. USA, 84, 2707-2712 (1987); R. C. Weigand et al, J. Biol. Chem., 267, 8591-8598 (1992); R. J. Duronio et al, Proc. Natl. Acad. Sci. USA, 89, 4129-4133 (1992)] The ability of compounds to inhibit Candida NMT enzymatic activity was assessed using a radiochemical HPLC end-point assay as described previously for Saccharomyces cerevisiae and human NMTs. [D. Towler et al, Proc. Natl. Acad. Sci. USA, 83, 2812-2816 (1986); W. J. Rocque et al, J. Biol. Chem., 268, 9964-9971 (1991)] The donor substrate [^3H]myristoyl-coenzyme A was enzymatically synthesized from [^3H]myristic acid (50 Ci/mmol, Amersham, Arlington Heights, Ill.) and coenzyme A (Fluka Chemical Corp., Ronkonkoma, N.Y.), and purified as described previously. [W. J. Rocque et al, J. Biol. Chem., 268, 9964-9971 (1991)] The peptide acceptor substrate GNAASARR-NH2 was prepared by solid-phase peptide synthesis using the t-Boc amino acid methodology, followed by HF treatment and reverse-phase HPLC purification. Inhibitor stock solutions were prepared at 22 mM in DMSO; the final concentration of DMSO in each assay was 0.5% (v/v). […] The reaction was quenched after 10 minutes at 24° C. by the addition of ice-cold MeOH, and the reaction products were separated and measured using C4 reverse-phase HPLC (Vydac 214TP10415; Separations Group, Hesperia, Calif.) and in-line scintillation counting using a Radiomatic A250 (Packard Instruments, Downers Grove, Ill.) and Ecolite(+) (ICN Biomedical, Costa Mesa, Calif.) as the scintillant. Selectivity was determined by calculating the ratio of the IC50 against human NMT to the IC50 against C. albicans NMT.

[8] = test system: Candida albicans, strain B311; assay: Antifungal susceptibility testing, microdilution broth, pH 5.4/30° C./YNB; type: cell-based; conditions: B311, 24 hours, Table V (values agree with pH 5.4 assay), read-out: caEC50 24 hours
Protocol: Antifungal Screens were set up initially against Candida albicans, strain B311, and Cryotococcus neoformans, strain L210425. Both pathogens, (originally from the stock culture collection, Medical mycology research center, Washington university-Barnes hospital), were obtained from Dr.Kobayashi, Prof.of infectious diseases, Washington University, St.Louis, Mo.
All cultures are maintained at 30° C. on Sabouraud's dextrose agar slants and subcultured at monthly intervals to fresh medium. All inocula for susceptibility testing are prepared in yeast nitogen base(YNB, Difco) broth.
A loopful of growth from Sabouraud dextrose agar slant is inoculated into 4 ml of YNB broth media and incubated at 30° C. overnight (18-24 hrs) with constant agitation (Gyratory Shaker, New Brunswick Scientific). Prior to setting up susceptibility testing, the organisms are counted in a hemocytometer, and diluted as needed into assay media.
1) (Assay at DH 5.4/30° C. Incubation/YNB Media).
Antifungal assays were carried out initially by a modification of the method published by Jones, et. al; (1), and communicated to Searle by Dr. Kobayashi, Washington University. [R. N. Jones et al, Manual of Clinical Microbiology, 4th ed., (1985)]
The antifungal susceptibility testing consists of a microdilution broth procedure performed in 96 well microtiter plates (Costar, cat#3799). Briefly, test compounds from a 20 mM stock solution in DMSO are diluted into sterile, deionized water (final DMSO concentration not exceeding 1%), to yield 2× the desired concentration (100 uM, 10 uM and 1 uM for an initial screen, or a selected concentration range in serial 2 fold dilutions for EC50 determination). One hundred microliters (100 ul) of each concentration is dispensed into triplicate wells of a 96 well microtiter plate. Appropriate dilutions of a suspension of C.albicans (1×10^6 cells/ml) in 2× YNB is distributed into each of the wells, including growth control wells containing no test compound as well as control wells with 0.5% DMSO. Amphotericin B at 0.05, 1 and 5 ug/ml is included in each assay plate as a positive control. The plates are incubated at 30° C. and cell growth is scored by reading the absorbance at 590 nm on an Elisa plate reader(Dynatech, MR.5000).

[9] = molecular target: T2, Candida albicans NMT (Candida albicans, UniProt P30418); assay: NMT enzyme inhibition assay (radiochemical HPLC end-point), Candida NMT; type: biochemical
T2 construct: made in house; host or cells: E. coli
T2 sequence (P30418 1-451): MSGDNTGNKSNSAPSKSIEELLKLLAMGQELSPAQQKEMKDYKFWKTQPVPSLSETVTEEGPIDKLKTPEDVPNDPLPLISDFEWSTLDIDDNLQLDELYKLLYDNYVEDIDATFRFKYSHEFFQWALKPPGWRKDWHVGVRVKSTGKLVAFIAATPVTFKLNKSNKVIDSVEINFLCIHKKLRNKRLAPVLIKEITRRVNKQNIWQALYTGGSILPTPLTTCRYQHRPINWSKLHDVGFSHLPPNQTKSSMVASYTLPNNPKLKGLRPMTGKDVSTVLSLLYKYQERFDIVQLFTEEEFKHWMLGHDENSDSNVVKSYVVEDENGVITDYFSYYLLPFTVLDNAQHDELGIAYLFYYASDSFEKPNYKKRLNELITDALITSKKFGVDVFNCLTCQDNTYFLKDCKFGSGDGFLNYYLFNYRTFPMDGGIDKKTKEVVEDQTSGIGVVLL
Protocol: Recombinant Candida albicans and human NMTs were expressed and purified from E. coli using previously described protocols. [D. A. Towler et al, Proc. Natl. Acad. Sci. USA, 84, 2707-2712 (1987); R. C. Weigand et al, J. Biol. Chem., 267, 8591-8598 (1992); R. J. Duronio et al, Proc. Natl. Acad. Sci. USA, 89, 4129-4133 (1992)] The ability of compounds to inhibit Candida NMT enzymatic activity was assessed using a radiochemical HPLC end-point assay as described previously for Saccharomyces cerevisiae and human NMTs. [D. Towler et al, Proc. Natl. Acad. Sci. USA, 83, 2812-2816 (1986); W. J. Rocque et al, J. Biol. Chem., 268, 9964-9971 (1991)] The donor substrate [^3H]myristoyl-coenzyme A was enzymatically synthesized from [^3H]myristic acid (50 Ci/mmol, Amersham, Arlington Heights, Ill.) and coenzyme A (Fluka Chemical Corp., Ronkonkoma, N.Y.), and purified as described previously. [W. J. Rocque et al, J. Biol. Chem., 268, 9964-9971 (1991)] The peptide acceptor substrate GNAASARR-NH2 was prepared by solid-phase peptide synthesis using the t-Boc amino acid methodology, followed by HF treatment and reverse-phase HPLC purification. Inhibitor stock solutions were prepared at 22 mM in DMSO; the final concentration of DMSO in each assay was 0.5% (v/v). Inhibition assays were carried out by combining variable amounts of inhibitor or buffer with […] of [^3H]myristoyl-coenzyme A (1 μCi, 9.09 Ci/mmol) and 2.2 nmoles of GNAASARR-NH2 in a total volume of 60 μL of 0.2 M N-[2-hydroxy-ethyl]piperazine-N′-[2-ethanesulfonic acid], pH 7.4, 2 mM DL-dithiothreitol, 0.2 mM ethylene glycol-bis-(β-aminoethyl ether) N,N,N′,N′-tetraacetic acid, and initiating the reaction by the addition of 50 μL of a Candida NMT solution (7-12 ng/50 μL). Assays with human NMT were identical except that they used 60-75 ng/50 μL of enzyme solution and 0.22 nmoles of GNAASARR-NH2. The reaction was quenched after 10 minutes at 24° C. by the addition of ice-cold MeOH, and the reaction products were separated and measured using C4 reverse-phase HPLC (Vydac 214TP10415; Separations Group, Hesperia, Calif.) and in-line scintillation counting using a Radiomatic A250 (Packard Instruments, Downers Grove, Ill.) and Ecolite(+) (ICN Biomedical, Costa Mesa, Calif.) as the scintillant. Selectivity was determined by calculating the ratio of the IC50 against human NMT to the IC50 against C. albicans NMT.

[10] = Candida albicans, 516, pH 7.0/35° C./1x10^3 cells/mL, 48 hrs, read-out: EC50 - 48 HRS C.albicans (516)
[11] = pH 7.0/35° C./1x10^3 cells/mL, 48 hrs, read-out: EC50 - 48 HRS C.glab.
[12] = pH 7.0/35° C./1x10^3 cells/mL, 48 hrs, read-out: EC50 - 48 HRS C.para
[13] = pH 7.0/35° C./1x10^3 cells/mL, 48 hrs, read-out: EC50 - 48 HRS C.trop.
[14] = B311, pH 7.0/35° C./1x10^3 cells/mL, 48 hrs, read-out: EC50 - 48 HRS C.albicans
[15] = pH 7.0/35° C./1x10^3 cells/mL, 48 hrs, read-out: EC50 - 48 HRS C.lusi.

EC50 [1, 10]	EC50 [2, 11]	EC50 [3, 12]	EC50 [4, 13]	EC50 [5, 14]	EC50 [6, 15]	SMILES	other results
0.65 µg/mL	26 µg/mL	0.91 µg/mL	2.6 µg/mL	0.71 µg/mL	0.6 µg/mL	OC(Cn1cncn1)(Cn1cncn1)c1ccc(F)cc1F [Fluconazole, fluconazole]	
3.2 µM	> 100 µM	0.2 µM	> 100 µM	4.4 µM	0.4 µM	CN(C/C=C/C#CC(C)(C)C)Cc1cccc2ccccc12 [Terbinafine, terbinafine]	
						Cc1nccn1CCCCc1ccc(C(C)C(=O)N[C@@H](CO)C(=O)N[C@@H](CCCCN)C(=O)N[C@@H](CC2CCCCC2)C(=O)O)cc1 (mixture of isomers) [Example 1, L-Alanine, 3-cyclohexyl-N-[N^2-[N-[2-[4-[4-(2-methyl-1H-imidazol-1-yl)butyl]phenyl]oxopropyl]-L-seryl]-L-lysyl]-, (±), bis-trifluoroacetate]	IC50 [7]: 850 µM; EC50 [8]: 33 µM; IC50 ([9]; Table V, read-out: IC50 caNMT): 0.4 µM; Selectivity ([9]; ratio of IC50 against human NMT to IC50 against C. albicans NMT): 2200
						C[C@@H]([C@H](N)C(=O)N[C@H](C(=O)O)[C@H]1O[C@@H](n2ccc(=O)[nH]c2=O)[C@H](O)[C@@H]1O)[C@H](O)c1ccc(O)cn1 [Nikkomycin]	EC50 ([1]; Candida albicans, 516, pH 7, read-out: EC50 - 48 HRS C.albicans (516)): 11 µM; EC50 ([2]; pH 7, read-out: EC50 - 48 HRS C.glab.): > 100 µM; EC50 ([3]; pH 7, read-out: EC50 - 48 HRS C.para): 13 µM; EC50 ([4]; pH 7, read-out: EC50 - 48 HRS C.trop.): > 100 µM; EC50 ([5]; B311, pH 7, read-out: EC50 - 48 HRS C.albicans): 4.5 µM; EC50 ([6]; pH 7, read-out: EC50 - 48 HRS C.lusi.): 28 µM
